The test system of this experiment is hamster 263K scrapie. Also on record: species or system transgenic mice over-expressing the hamster PrP-sen (Tg7). The settings on record: in vivo.

Turning to Phthalocyanine tetrasulfonate [PcTS], the “animals surviving a minimum of 200 days” value is on record as 60%; the “increase of survival times, late treatment” value was “one week”; the “survival longer than untreated controls” value is given as “approximately 120 days”; the “survivors at >170 Dpi” value was 80%.

For the origin of these results see patent publication US6632808B1 (priority 1998, dated 2003).
